Where a SMILES comes first, the peptide text is derived from it. Bridges are numbered along the chain shown (N, C = ends). Where no end group is shown, it is not given here. [ ]: non-standard residue; d: D form. The star is where a group is joined. NMeR = CN[C@@H](CCCNC(=N)N)C(=O)O; X1 = CC(C)CCOc1ccc(CCN*)cc1; Orn = NCCC[C@H](N)C(=O)O; Bz = O=C(c1ccccc1)*
Test system: SBcl2 melanoma cell
Assay: Melanoma cell growth / colony formation
Assay type: cell-based, human
Details: SBcl2 melanoma cells
In the case of GVLAATAAVNALLFAGYST [SEQ ID NO: 68], the “concentration that impaired cell growth” value is reported as 7.2 µM.

Same assay, conditions: control vs FAM-TAT-SEQ ID NO: 17
With GVLAATAAVNALLFAGYST [SEQ ID NO: 68] the “growth-impairing concentration relative to the test sequence” value was 4 fold.

Test system: not listed separately
Assay: Parallel artificial membrane permeability assay (PAMPA)
Assay type: in vitro ADME
Details: phospholipid and dodecane artificial membrane, mass spectroscopy
Protocol: A parallel artificial membrane permeability assay (PAMPA) was carried out using phospholipid and dodecane as the artificial membrane.
With `CC[C@H](C)[C@H](NC(=O)[C@H](CC(N)=O)NC(=O)[C@@H](NC(=O)[C@H](Cc1cnc[nH]1)NC(=O)[C@H](CCCNC(=N)N)NC(=O)[C@@H](NC(=O)[C@H](CCCCN)NC(=O)[C@H](CCCNC(=N)N)NC(=O)[C@H](CC(C)C)NC(=O)[C@@H](NC(=O)CN)C(C)C)[C@@H](C)O)C(C)C)C(=O)N[C@@H](CC(C)C)C(=O)N[C@@H](CC(C)C)C(=O)N[C@@H](Cc1ccccc1)C(=O)N[C@@H](CCSC)C(=O)NCC(=O)N[C@@H](Cc1ccc(O)cc1)C(=O)N[C@@H](CO)C(=O)N[C@H](C(=O)O)[C@@H](C)O` [SEQ ID NO: 1] the passive permeability was “no detectable trace of passive permeability”. In the case of `CSCC[C@H](NC(=O)[C@H](Cc1ccccc1)NC(=O)[C@H](CC(C)C)NC(=O)[C@H](CC(C)C)NC(=O)[C@@H]1CCC(=O)NCCCC[C@H](NC(=O)[C@H](CCCCN)NC(=O)[C@H](CCCNC(=N)N)NC(=O)[C@@H](N)CC(C)C)C(=O)N[C@@H](CCCNC(=N)N)C(=O)N[C@@H](Cc2c[nH]cn2)C(=O)N[C@@H](C(C)C)C(=O)N[C@@H](C)C(=O)N1)C(=O)NCC(N)=O` [compound 38], the passive permeability is reported as “no detectable trace of passive permeability”. In the case of `CC(C)[C@@H]1NC(=O)[C@H](Cc2c[nH]cn2)NC(=O)[C@H](CCCNC(=N)N)NC(=O)[C@@H](N)CCCCNC(=O)CC[C@@H](C(N)=O)NC(=O)[C@H](C)NC1=O` [compound 48] (H-KRHVAE-NH2; lactam 1-6), the passive permeability is reported as “no detectable trace of passive permeability”. For `CC(C)CCOc1ccc(CCNC(=O)[C@@H]2CCC(=O)NCCCC[C@H](NC(=O)c3ccccc3)C(=O)N(C)[C@@H](CCCNC(=N)N)C(=O)N[C@H](C)C(=O)N3CCC[C@H]3C(=O)N[C@@H](C)C(=O)N2)cc1` [compound 64] (Bz-K[NMeR][dA]PAE-X1; lactam 1-6), the passive permeability was “no detectable trace of passive permeability”.

Molecular target: dimer forming interface (Homo sapiens, UniProt P15056)
Sequence (P15056 2-766 limits assumed): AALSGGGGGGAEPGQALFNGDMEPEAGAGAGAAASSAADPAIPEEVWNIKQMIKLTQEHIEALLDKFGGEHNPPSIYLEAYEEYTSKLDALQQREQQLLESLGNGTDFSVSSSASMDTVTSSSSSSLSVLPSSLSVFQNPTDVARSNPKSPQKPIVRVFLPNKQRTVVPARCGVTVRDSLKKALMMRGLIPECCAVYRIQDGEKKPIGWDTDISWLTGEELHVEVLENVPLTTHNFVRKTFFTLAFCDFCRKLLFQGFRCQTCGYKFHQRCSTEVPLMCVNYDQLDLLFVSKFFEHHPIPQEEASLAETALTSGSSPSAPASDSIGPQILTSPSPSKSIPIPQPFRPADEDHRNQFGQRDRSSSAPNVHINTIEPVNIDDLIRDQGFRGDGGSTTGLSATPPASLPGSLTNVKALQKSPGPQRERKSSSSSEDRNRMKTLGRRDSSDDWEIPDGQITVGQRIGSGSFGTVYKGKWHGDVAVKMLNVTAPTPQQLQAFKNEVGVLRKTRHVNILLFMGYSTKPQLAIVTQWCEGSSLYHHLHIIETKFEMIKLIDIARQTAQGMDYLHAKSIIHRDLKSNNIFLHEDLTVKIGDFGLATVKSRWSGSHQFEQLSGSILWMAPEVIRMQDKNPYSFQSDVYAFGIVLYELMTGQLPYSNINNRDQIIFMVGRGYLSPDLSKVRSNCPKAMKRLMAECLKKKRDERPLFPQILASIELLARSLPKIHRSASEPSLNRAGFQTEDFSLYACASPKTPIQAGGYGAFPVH
Assay: Kd (μM)
Details: not given
`CC[C@H](C)[C@H](NC(=O)[C@H](CC(N)=O)NC(=O)[C@@H](NC(=O)[C@H](Cc1c[nH]cn1)NC(=O)[C@H](CCCNC(=N)N)NC(=O)[C@@H](NC(=O)[C@H](CCCCN)NC(=O)[C@H](CCCNC(=N)N)NC(=O)[C@H](CC(C)C)NC(=O)[C@@H](NC(C)=O)C(C)C)[C@@H](C)O)C(C)C)C(=O)N[C@@H](CC(C)C)C(=O)N[C@@H](CC(C)C)C(=O)N[C@@H](Cc1ccccc1)C(=O)N[C@@H](CCSC)C(=O)NCC(=O)O` [compound 19] showed a Kd of 800 ± 83 nM. With LLKTRHVNILLFMG [compound 32] the Kd was 550 ± 105 nM. LRKTRHVNILLFMG [SEQ ID NO: 31] gave a Kd of 190 ± 130 nM. Compound VARKTRHVNILLFMG [compound 21] has a Kd of 450 ± 30 nM. For VLAKTRHVNILLFMG [SEQ ID NO: 22], the Kd was 360 ± 30 nM. For VLRKTAHVNILLFMG [compound 24], the Kd was 2400 ± 350 nM. With VLRKTRAVNILLFMG [compound 25] the Kd was 2700 ± 400 nM. VLRKTRHVNALLFMG [compound 27] showed a Kd of 2690 ± 350 nM. Compound VLRKTRHVNIALFMG [compound 28] has a Kd of 1020 ± 140 nM. Work on VLRKTRHVNILLAMG [compound 29] yielded a Kd of 570 ± 80 nM. For VLRKTRHVNILLFAG [compound 30], the Kd was 540 ± 150 nM.

Test system: NRASQ61K-mutant SBcl2 melanoma cells
Assay: Western blotting of MEK/ERK signalling in melanoma cells treated with peptide and PLX4032
Assay type: cell-based, human
Details: FIG. 2A, cells electroporated with peptide, 1 μM PLX4032 1 hour or DMSO
Protocol: Following recovery at 37° C. for 30 minutes, the cells were treated with 1 μM PLX4032 for 1 hour or DMSO as a vehicle control. Subsequently, the cells were harvested, lysed using RIPA buffer and analyzed by Western blotting using the indicated antibodies. […] Four hours prior to harvest, the cells were treated with 1 μM vemurafenib (PLX4032), or the same volume of DMSO as vehicle control. RIPA buffer lysates were subjected to Western blotting using the indicated antibodies. Detection of Hsp90 served as a representative loading control.
NRAS^Q61K-mutant SBCl2 melanoma cells were electroporated with the BioRad Gene Pulser XCell™ in the presence of the indicated concentrations of peptide. Following recovery at 37° C. for 30 minutes, cells were treated with 1 μM PLX4032 for 1 hour or DMSO as a vehicle control. Subsequently, the cells were harvested, lysed using RIPA buffer, and analyzed by Western blotting using the indicated antibodies.
For `CC[C@H](C)[C@H](NC(=O)[C@H](CC(N)=O)NC(=O)[C@@H](NC(=O)[C@H](Cc1cnc[nH]1)NC(=O)[C@H](CCCNC(=N)N)NC(=O)[C@@H](NC(=O)[C@H](CCCCN)NC(=O)[C@H](CCCNC(=N)N)NC(=O)[C@H](CC(C)C)NC(=O)[C@@H](NC(=O)CN)C(C)C)[C@@H](C)O)C(C)C)C(=O)N[C@@H](CC(C)C)C(=O)N[C@@H](CC(C)C)C(=O)N[C@@H](Cc1ccccc1)C(=O)N[C@@H](CCSC)C(=O)NCC(=O)N[C@@H](Cc1ccc(O)cc1)C(=O)N[C@@H](CO)C(=O)N[C@H](C(=O)O)[C@@H](C)O` [SEQ ID NO: 1], the “downstream signaling of MEK and ERK (pMEK, pERK)” value was “reduce downstream signaling of MEK and ERK”.

Molecular target: T1, B-Raf (Homo sapiens, UniProt P15056)
T1 sequence (P15056 whole entry): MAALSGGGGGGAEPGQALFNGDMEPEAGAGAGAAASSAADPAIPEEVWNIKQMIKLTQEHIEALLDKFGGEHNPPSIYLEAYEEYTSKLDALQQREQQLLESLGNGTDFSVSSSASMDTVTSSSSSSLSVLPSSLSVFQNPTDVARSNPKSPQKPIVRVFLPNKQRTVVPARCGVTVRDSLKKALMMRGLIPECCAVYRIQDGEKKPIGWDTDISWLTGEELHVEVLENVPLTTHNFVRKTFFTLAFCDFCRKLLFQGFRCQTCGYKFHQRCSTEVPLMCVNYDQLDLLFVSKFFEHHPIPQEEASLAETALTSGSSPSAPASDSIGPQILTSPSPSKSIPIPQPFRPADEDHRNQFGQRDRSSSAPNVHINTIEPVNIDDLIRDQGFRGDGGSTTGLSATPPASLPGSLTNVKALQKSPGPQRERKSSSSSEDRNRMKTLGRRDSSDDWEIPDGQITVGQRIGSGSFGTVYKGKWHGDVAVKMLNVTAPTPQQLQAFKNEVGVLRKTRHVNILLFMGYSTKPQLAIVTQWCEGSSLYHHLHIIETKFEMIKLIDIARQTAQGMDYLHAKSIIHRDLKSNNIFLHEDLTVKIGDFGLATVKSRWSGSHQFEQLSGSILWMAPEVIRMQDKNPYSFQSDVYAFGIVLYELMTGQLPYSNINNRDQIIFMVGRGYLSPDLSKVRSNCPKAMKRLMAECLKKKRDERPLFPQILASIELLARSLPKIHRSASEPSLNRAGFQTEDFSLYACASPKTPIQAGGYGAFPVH
Assay: Dissociation constant (Kd) determination from intrinsic Trp fluorescence (ITF)
Assay type: binding
Details: not given
Work on `CSCC[C@H](NC(=O)[C@H](Cc1ccccc1)NC(=O)[C@H](CC(C)C)NC(=O)[C@H](CC(C)C)NC(=O)[C@@H]1CCC(=O)NCCCC[C@H](N)C(=O)N[C@@H](CCCNC(=N)N)C(=O)N[C@@H](Cc2c[nH]cn2)C(=O)N[C@@H](C(C)C)C(=O)N[C@@H](C)C(=O)N1)C(=O)NCC(N)=O` [compound 47] (H-KRHVAELLFMG-NH2; lactam 1-6) yielded a Kd of 590 ± 20 nM. In the case of `CC(C)[C@@H]1NC(=O)[C@H](Cc2c[nH]cn2)NC(=O)[C@H](CCCNC(=N)N)NC(=O)[C@@H](N)CCCCNC(=O)CC[C@@H](C(N)=O)NC(=O)[C@H](C)NC1=O` [compound 48] (H-KRHVAE-NH2; lactam 1-6), the Kd is reported as 300 ± 30 nM. Work on `CSCC[C@H](NC(=O)[C@H](Cc1ccccc1)NC(=O)[C@H](CC(C)C)NC(=O)[C@H](CC(C)C)NC(=O)[C@@H]1CCC(=O)NCCCC[C@H](NC(=O)[C@H](CCCCN)NC(=O)[C@H](CCCNC(=N)N)NC(=O)[C@H](CC(C)C)NC(=O)[C@@H](N)C(C)C)C(=O)N[C@@H](CCCNC(=N)N)C(=O)N[C@@H](Cc2c[nH]cn2)C(=O)N[C@@H](C(C)C)C(=O)N[C@@H](CC(N)=O)C(=O)N1)C(=O)NCC(N)=O` [compound 53] yielded a Kd of 1890 ± 330 nM. `CSCC[C@H](NC(=O)[C@H](Cc1ccccc1)NC(=O)[C@H](CCC(C)C)NC(=O)[C@H](CC(C)C)NC(=O)[C@@H]1CCC(=O)NCCC[C@H](NC(=O)[C@H](CCCCN)NC(=O)[C@H](CCCNC(=N)N)NC(=O)[C@H](CC(C)C)NC(=O)[C@@H](N)C(C)C)C(=O)N[C@@H](CCCNC(=N)N)C(=O)N[C@@H](Cc2c[nH]cn2)C(=O)N[C@@H](C(C)C)C(=O)N[C@@H](C)C(=O)N1)C(=O)NCC(N)=O` [compound 57] showed a Kd of 430 ± 30 nM. In the case of `CC[C@H](C)[C@H](NC(=O)[C@H](CC(C)C)NC(=O)[C@@H]1CCC(=O)NCCC[C@H](NC(=O)[C@H](CCCCN)NC(=O)[C@H](CCCNC(=N)N)NC(=O)[C@H](CC(C)C)NC(=O)[C@@H](N)C(C)C)C(=O)N[C@@H](CCCNC(=N)N)C(=O)N[C@@H](Cc2c[nH]cn2)C(=O)N[C@@H](C(C)C)C(=O)N[C@@H](C)C(=O)N1)C(=O)N[C@@H](Cc1ccccc1)C(=O)N[C@@H](CCSC)C(=O)NCC(N)=O` [compound 58] (H-VLRK[Orn]RHVAELIFMG-NH2; lactam 5-10; N-terminus assumed), the Kd is reported as 170 ± 60 nM. With `CSCC[C@H](NC(=O)[C@H](Cc1ccccc1)NC(=O)[C@H](CC(C)C)NC(=O)[C@H](CC(C)C)NC(=O)[C@@H]1CCC(=O)NCCCC[C@H](NC(=O)[C@H](CCCCN)NC(=O)[C@H](CCCNC(=N)N)NC(=O)[C@H](CC(C)C)NC(=O)[C@@H](N)C(C)C)C(=O)N[C@@H](CCCNC(=N)N)C(=O)N[C@@H](Cc2c[nH]cn2)C(=O)N[C@@H](C(C)C)C(=O)N[C@@H](C)C(=O)N1)C(=O)NCC(N)=O` [compound 59] the Kd was 61 ± 10 nM. For `CSCC[C@H](NC(=O)[C@H](Cc1ccccc1)NC(=O)[C@H](CC(C)C)NC(=O)[C@H](CC(C)C)NC(=O)[C@@H]1CCC(=O)NCCCC[C@H](NC(=O)[C@H](CCCCN)NC(=O)[C@H](CCCNC(=N)N)NC(=O)[C@H](CC(C)C)NC(=O)[C@@H](N)C(C)C)C(=O)N(C)[C@@H](CCCNC(=N)N)C(=O)N[C@@H](Cc2c[nH]cn2)C(=O)N[C@@H](C(C)C)C(=O)N[C@@H](C)C(=O)N1)C(=O)NCC(N)=O` [compound 60], the Kd was 39 ± 20 nM. `CSCC[C@H](NC(=O)[C@H](Cc1ccccc1)NC(=O)[C@H](CC(C)C)NC(=O)[C@H](CC(C)C)NC(=O)[C@@H]1CCC(=O)NCCCC[C@H](N)C(=O)N[C@@H](CCCNC(=N)N)C(=O)N[C@@H](Cc2c[nH]cn2)C(=O)N2CCC[C@H]2C(=O)N[C@@H](C)C(=O)N1)C(=O)NCC(N)=O` [compound 61] (H-KRHPAELLFMG-NH2; lactam 1-6) gave a Kd of 160 ± 20 nM.

Same assay, conditions: FIG. 1, unit not given
With GVLRKTHHVNILGFWGYST [SEQ ID NO: 2] the “Kd, binding affinity to the dimer forming interface of B-Raf” value (from here on “Kd, binding affinity”) was “no measurable binding”. For GVLRKTRFVNILLFMGYST [SEQ ID NO: 9], the “Kd, binding affinity” value was “no measurable binding”. For GVLRKTRHVNILLDMGYST [SEQ ID NO:14], the “Kd, binding affinity” value was “no measurable binding”.

Same assay, conditions: Table 2, binding affinity with BRAF, cyclized vs linear peptides; read-out: Kd
Work on VLRKTRHVNILLFM [compound 16] yielded a Kd of 5750 ± 1200 nM.

Molecular target: T1, B-Raf
Assay: Isothermal Titration Calorimetry (ITC) of B-Raf binding of peptides
Details: change in enthalpy
Excerpt: Isothermal Titration Calorimetry (ITC) of B-Raf Binding of Peptides
An isothermal titration calorimeter composed of two identical cells surrounded by an adiabatic jacket was used to perform ITC measurements. The thermopile/thermocouple circuits were used to detect temperature differences between a reference cell (filled with buffer or water) and a sample cell containing the macromolecule. During an experiment, ligand is titrated into the sample cell in precisely known aliquots, causing heat to be either taken up or evolved (depending on the nature of the reaction). Measurements consist of the time-dependent input of power required to maintain equal temperatures between the sample and reference cells. In an exothermic reaction, the temperature in the sample cell increases upon addition of ligand. This causes the feedback power to the sample cell to be decreased (remember: a reference power is applied to the reference cell) in order to maintain an equal temperature between the two cells. In an endothermic reaction, the opposite occurs; the feedback circuit increases the power in order to maintain a constant temperature (isothermic/isothermal operation). […] The pattern of these heat effects as a function of the molar ratio [ligand]/[macromolecule] can then be analyzed to give the thermodynamic parameters of the interaction under study.
`CC[C@H](C)[C@H](NC(=O)[C@H](CC(N)=O)NC(=O)[C@@H](NC(=O)[C@H](Cc1c[nH]cn1)NC(=O)[C@H](CCCNC(=N)N)NC(=O)[C@H](C)NC(=O)[C@H](CCCCN)NC(=O)[C@H](CCCNC(=N)N)NC(=O)[C@H](CC(C)C)NC(=O)[C@@H](NC(=O)CN)C(C)C)C(C)C)C(=O)N[C@@H](CC(C)C)C(=O)N[C@@H](CC(C)C)C(=O)N[C@@H](Cc1ccccc1)C(=O)N[C@@H](CCSC)C(=O)NCC(=O)N[C@@H](Cc1ccc(O)cc1)C(=O)N[C@@H](CO)C(=O)N[C@H](C(=O)O)[C@@H](C)O` [SEQ ID NO: 8] gave a ΔH of -8.32 kcal/mol.

Same assay, conditions: change in entropy, text b156
In the case of `CC[C@H](C)[C@H](NC(=O)[C@H](CC(N)=O)NC(=O)[C@@H](NC(=O)[C@H](Cc1c[nH]cn1)NC(=O)[C@H](CCCNC(=N)N)NC(=O)[C@H](C)NC(=O)[C@H](CCCCN)NC(=O)[C@H](CCCNC(=N)N)NC(=O)[C@H](CC(C)C)NC(=O)[C@@H](NC(=O)CN)C(C)C)C(C)C)C(=O)N[C@@H](CC(C)C)C(=O)N[C@@H](CC(C)C)C(=O)N[C@@H](Cc1ccccc1)C(=O)N[C@@H](CCSC)C(=O)NCC(=O)N[C@@H](Cc1ccc(O)cc1)C(=O)N[C@@H](CO)C(=O)N[C@H](C(=O)O)[C@@H](C)O` [SEQ ID NO: 8], the ΔS is reported as −28.4 J/mol·K.
